Test results published in US20120329721A1, “MEANS FOR PREVENTING AND TREATING CELLULAR DEATH AND THEIR BIOLOGICAL APPLICATIONS” (CHIESI FARMACEUTICI S.P.A., priority 2003, published 2012).
Entries after “also recorded” stand apart in the source; their conditions may differ. Like-named read-outs stand apart in the source and are kept apart here. Residues, ends and D or L forms follow the SMILES beside them. *: point of attachment. Cbz = O=C(OCc1ccccc1)*; CH2F = FC*

What was measured:
[1] = target: T1, human recombinant caspase-2 (Homo sapiens, UniProt P42575); test: In vitro VDVAD-AMC cleavage by recombinant caspase-2; assay type: biochemical; conditions: inhibitor 2 μM, 50 μM VDVAD-AMC, caspase-2 125 U, 30 min at 37° C.
T1 construct: purchased BIOMOL
T1 sequence (P42575 170-325 limits assumed): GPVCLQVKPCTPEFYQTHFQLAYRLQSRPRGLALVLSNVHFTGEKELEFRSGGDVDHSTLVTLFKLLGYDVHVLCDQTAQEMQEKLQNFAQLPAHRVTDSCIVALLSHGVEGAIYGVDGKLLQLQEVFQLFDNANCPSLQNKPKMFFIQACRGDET
T1 sequence (P42575 348-452 limits assumed): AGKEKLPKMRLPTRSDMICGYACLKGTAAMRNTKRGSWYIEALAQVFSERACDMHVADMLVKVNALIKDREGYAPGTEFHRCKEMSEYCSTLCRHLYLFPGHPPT
Description: Activity of human recombinant caspase-2 (BIOMOL QuantiZyme™ Assay System) was assessed in 100 μl assay buffer (50 mM HEPES, pH 7.4, 100 mM NaCl, 0.1% CHAPS, 10 mM DTT, 1 mM EDTA, 10% glycerol).

caspase-8 = test: In cellula caspase-8 like activity (FAM-LETD-FMK FLICA) in SD-neurons; assay type: cell-based, mouse; conditions: 24 hr-SD; inhibitors 100 μM
caspase-3 [2] = test: Caspase-3 activation (FLICA) in VP16-treated Jurkat cells; assay type: cell-based, human; conditions: VP16 10 μM, 7 hrs; inhibitors 50 μM
caspase-9 = test: In cellula caspase-9 like activity (FAM-LEHD-FMK FLICA) in SD-neurons; assay type: cell-based, mouse; conditions: 24 hr-SD; inhibitors 100 μM (BA 25 μM)
Description: Neurons were incubated with 1/150 of the DMSO stock solution of the FLICA for 1 hr at 37° C. 7-AAD and Hoechst were added during the last 15 min. Then neurons were washed three times in washing buffer (CaspaTag™ Kit). […] Cleaved caspase-3 was evidenced in cellula by immunodetection using Phycoerythrin (PE)-conjugated polyclonal antibodies (Beckton Dickinson). Neurons were stained by 7-AAD, trypsinized and fixed in PBS containing 1% PFA and 20 μg/ml Actinomycin D (AD) for 20 min. […] After washings in PBS, PE-related fluorescence was analysed on the cytometer (Fl-2 channel). Z-val-Ala-Asp(OMe)-FMK (Z-VAD-FMK), Quinoline-Val-Asp (OMe)-CH2-O-Ph (Q-VD-OPH), Z-DEVD-FMK ([…], ICN) and Z-LEHD-FMK ([…], all purchased from ICN (Orsay, France), and 4-(2-Aminoethyl)benzenesulfonyl fluoride (AEBSF, Pefabloc SC, Roche, Meylan, France) were added at 100 μM at the initiation of serum deprivation. Sulforhodamine-DEVD-FMK, (CaspaTag™ Red Activity Kit) permitted to detect activated caspase-3 and FITC-Annexin V. Neurons were incubated with 1/900 of the DMSO stock solution of the FLICA, and 1× FITC-annexin V in 200 μl of annexin-buffer for 30 min at 37° C. Then neurons were washed three times in a buffer composed of 50% washing buffer and 50% annexin-buffer. […] For FM, FLICA was excited through the BP515-560 filter and its fluorescence was collected through the LP590 long pass emission filter.
Neurons were loaded with 1 μM JC-1 for 30 min at 37° C. […] JC-1 monomers were detected in the Fl-1 channel by FC. […] Activated caspase-2, -3, -8 and -9 were detected using specific FAM-conjugated peptides (called Fluorochrome Labeled Inhibitor of Caspase, FLICA: CaspaTag™ fluorescein Caspase Activity Kits, Q-Biogen, Illkirch, France; ApoFluor™ Caspase Detection Kits, ICN, Orsay, France): FAM-VDVAD-FMK, FAM-DEVD-FMK, FAM-LETD-FMK and FAM-LEHD-FMK, respectively. Neurons were incubated with FLICAs (1:150, CaspaTag™ or 1:500, ApoFluor™) for 1 hr at 37° C., then washed three times in washing buffer. […] Phosphatidylserine (PS) exposure to the outer leaflet of the plasma membrane was detected through the fixation of FITC conjugated-annexin V (Immunotech).

primary cortical neurons [3] = assay type: cell-based; conditions: for survival / protection of SD-neurons against cell death (apoptosis hallmarks overall): 24 hr-SD, inhibitors 100 μM (BA 25 μM, furosemide 2 mM, siRNA 3.8 μg)
caspase-3 [4] = test: In cellula caspase-3 like activity (FAM-DEVD-FMK FLICA or anti-cleaved caspase-3 antibody) in SD-neurons; assay type: cell-based, mouse; conditions: 24 hr-SD; inhibitors 100 μM (BA 25 μM)
Jurkat cells [5] = test: VP16-induced cell death of Jurkat cells, cytoprotection assay; assay type: cell-based, human; conditions: for terminal nuclear alterations and PMP in VP16-treated Jurkat cells / ΔΨm loss in VP16-treated Jurkat cells: VP16 10 μM, 7-8 hrs, inhibitors 50 μM
caspase-2 [6] = test: Caspase-2 activation (FLICA) in VP16-treated Jurkat cells; assay type: cell-based, human; conditions: VP16 10 μM, 7 hrs; inhibitors 50 μM
Bax = Bax translocation to mitochondria in SD-neurons (Δ21 antibody immunostaining, subcellular fractionation); assay type: cell-based, mouse; conditions: 24 hr-SD, inhibitors 100 μM (furosemide 2 mM)
caspase-2 [7] = test: In cellula caspase-2 like activity (FAM-VDVAD-FMK FLICA; Western blotting) in SD-neurons; assay type: cell-based, mouse
cytochrome c = test: Immunodetection of cytochrome c release in SD-neurons; assay type: cell-based, mouse; conditions: 24 hr-SD, inhibitors 100 μM
Bax α = test: Bax cleavage (p22 to p18) in SD-neurons by Western blotting; assay type: cell-based, mouse; conditions: 24 hr-SD, Western Blotting Δ21 antibody; VDVAD/QVDOPH 100 μM, ALLN/ALLM 25 μM, E64d 25-50 μM, lactacystin 1-10 μM, epoxomycin 10 μM
Description: Neurons were lysed at RT in 25 mM Tris-HCl pH 7.4, 25 mM NaCl, 5 mM EDTA, 1% Triton X-100 supplemented by complete protease inhibitors cocktail (Roche). Protein concentration was determined using the Bio-Rad protein assay kit. Proteins (30 μg for caspase-2; 10 μg for Bax) were separated on 12.5% polyacrylamide gels and transferred to PVDF membranes (Amersham). […] The monoclonal anti-mouse caspase-2antibody (11B4, Alexis Biochemicals) was used at a 1:1000 dilution; polyclonal antibody (Δ21, Santa Cruz Biotechnology) raised against mouse Bax α deleted for the carboxy terminal 21 amino acids was used at a 1:200 dilution; polyclonal antibody (N20, Santa Cruz Biotechnology) raised against the amino terminus of Bax α (recognizing residues 11 to 30) was used at a 1:1000 dilution. Actin (42 kDa; Sigma; 1:5000) is used as an equal loading control. Immunoblotting of heat-shock protein 60 (HSP60) with a mouse monoclonal anti-HSP (Sigma; 1:400) was used to check the purity of the heavy membrane fraction enriched in mitochondria.

primary cortical neurons [8] = test: Cortical neuron death induced by other stimuli (ionomycin, staurosporine, β-amyloid 25-35, MPTP, 3-NPA, SNP); assay type: cell-based, mouse; conditions: for protection against ionomycin-induced neuronal cell death: ionomycin 6 μM, 24 hrs
Jurkat cells [9] = conditions: model of Robertson et al., 2002; cited from earlier work

SMILES: COC(=O)CCC(NC(=O)C(CC(C)C)NC(=O)OCc1ccccc1)C(=O)NC(C(=O)NC(CC(=O)OC)C(=O)CF)C(C)O (centres unmarked) [Z-LETD-FMK, N-benzyloxycarbonyl-Leu-Glu(Ome)-Thr-Asp(OMe)-fluoromethylketone] (Cbz-LE(OMe)TD(OMe)-CH2F; configuration not given here)
- inhibition of VDVAD-AMC cleavage by recombinant caspase-2 [1]: did not interfere highly; also recorded: not strongly inactivated
- caspase-8 like activity in SD-neurons (caspase-8): abolishing
- caspase-3 activation in VP16-treated Jurkat cells (caspase-3 [2]): unable to prevent
- caspase-9 like activity / activation in SD-neurons (caspase-9): failed also to block
- survival / protection of SD-neurons against cell death (apoptosis hallmarks overall) (primary cortical neurons [3]): failed to protect neurons from SD
- caspase-3 like activity / activation in SD-neurons (caspase-3 [4]): failed also to block
- terminal nuclear alterations and PMP in VP16-treated Jurkat cells (Jurkat cells [5]): unable to prevent
- ΔΨm loss in VP16-treated Jurkat cells (Jurkat cells [5]): not abolished; also recorded: unable to prevent
- caspase-2 activation in VP16-treated Jurkat cells (caspase-2 [6]): do not impair caspase-2 activation; also recorded: unable to prevent

SMILES: COC(=O)CC(NC(=O)C(C)NC(=O)C(NC(=O)C(CC(=O)OC)NC(=O)C(NC(=O)OCc1ccccc1)C(C)C)C(C)C)C(=O)CF (stereo not drawn) [Z-VDVAD-FMK, N-benzyloxy-carbonyl-Val-Asp(Ome)-Val-Ala-Asp(OMe)-fluoromethylketone] (Cbz-VD(OMe)VAD(OMe)-CH2F; configuration not given here)
- inhibition of VDVAD-AMC cleavage by recombinant caspase-2 [1]: blocked
- Bax translocation (relocation) to mitochondria in SD-neurons (Bax): impair Bax translocation to mitochondria; also recorded: impair both Bax translocation and caspase-2 activity
- Bax translocation (relocation) to mitochondria in SD-neurons (Bax; listed as VDVAD): prevented; also recorded: blocks; also recorded: prevents integration of p18 Bax into mitochondrial membrane
- caspase-2 like activity / activation in SD-neurons (caspase-2 [7]): abolished; also recorded: abolish caspase-2 activation; also recorded: impair both Bax translocation and caspase-2 activity; also recorded: blocks
- decrease of procaspase-2 protein content (processing into p14 form) in SD-neurons (caspase-2 [7]; 24 hr-SD, 100 μM, Western Blotting 11B4): prevents it
- caspase-9 like activity / activation in SD-neurons (caspase-9): inhibited; also recorded: prevent downstream cytochrome c release-dependent activation
- cytochrome c release from mitochondria in SD-neurons (cytochrome c): efficiently blocked
- cytochrome c release from mitochondria in SD-neurons (cytochrome c; listed as VDVAD): reduce post-mitochondrial cytochrome c release
- survival / protection of SD-neurons against cell death (apoptosis hallmarks overall) (primary cortical neurons [3]): abolish loss of ΔΨm loss as well as others hallmarks of apoptosis
- survival / protection of SD-neurons against cell death (apoptosis hallmarks overall) (primary cortical neurons [3]; listed as VDVAD): abolishes these hallmarks of apoptosis
- concentration required for optimal survival / higher protective effect (primary cortical neurons [3]; dose-response, inhibitor added at the initiation of 24 hr-SD): 100 µM
- caspase-3 like activity / activation in SD-neurons (caspase-3 [4]): inhibited; also recorded: prevent downstream cytochrome c release-dependent activation
- Bax cleavage (p18 Bax) in SD-neurons (Bax α): prevent Bax cleavage
- cell death induced by VP16 (survival) (Jurkat cells [5]; Jurkat cells, VP16 7-8 hrs, inhibitors 25-100 μM pre-treatment, siRNA 24 hrs before): protective effect; also recorded: prevents cell death
- terminal nuclear alterations and PMP in VP16-treated Jurkat cells (Jurkat cells [5]): mostly prevent
- ΔΨm loss in VP16-treated Jurkat cells (Jurkat cells [5]): blocked ΔΨm loss
- cell death induced by staurosporine or ionomycin (primary cortical neurons [8]; cortical neurons): is not prevented
- protection against ionomycin-induced neuronal cell death (primary cortical neurons [8]): provides no protective effect; also recorded: absence of protective effect
- protection against ionomycin-induced neuronal cell death (primary cortical neurons [8]; listed as VDVAD): absence of protection
- cytochrome c release and phosphatidylserine residues exposure in Jurkat T cells (Jurkat cells [9]): decreased partially
